Columns and labels:
[1] = molecular target: T1, Alpha-1A adrenergic receptor (Rattus norvegicus, UniProt P43140); experiment: DRUGMATRIX: Alpha-1A adrenergic receptor radioligand binding (ligand: prazosin); format: cell membranes, Wistar, Submaxillary gland, Membrane; conditions: Not Active = under 50% inhibition at 10 µM
T1 sequence (P43140 whole entry): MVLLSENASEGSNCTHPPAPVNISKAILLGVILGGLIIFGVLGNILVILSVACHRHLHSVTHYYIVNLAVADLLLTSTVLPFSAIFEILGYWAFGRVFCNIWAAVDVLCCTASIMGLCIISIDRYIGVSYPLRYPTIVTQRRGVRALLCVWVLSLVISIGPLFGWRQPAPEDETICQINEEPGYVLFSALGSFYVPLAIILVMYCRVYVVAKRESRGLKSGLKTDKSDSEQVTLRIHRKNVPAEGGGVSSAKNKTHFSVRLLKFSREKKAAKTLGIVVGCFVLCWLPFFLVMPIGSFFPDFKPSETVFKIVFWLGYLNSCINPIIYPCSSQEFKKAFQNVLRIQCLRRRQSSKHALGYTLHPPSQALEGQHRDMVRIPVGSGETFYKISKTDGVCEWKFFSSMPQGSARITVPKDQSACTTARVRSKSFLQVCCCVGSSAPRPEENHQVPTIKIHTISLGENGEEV

[2] = molecular target: Beta-2 adrenergic receptor (Homo sapiens, UniProt P07550); experiment: DRUGMATRIX: Adrenergic beta2 radioligand binding (ligand: [3H] CGP-12177); format: cell membranes, CHO, Membrane; conditions: cho; Not Active = under 50% inhibition at 10 µM
Chain of Beta-2 adrenergic receptor (P07550 whole entry): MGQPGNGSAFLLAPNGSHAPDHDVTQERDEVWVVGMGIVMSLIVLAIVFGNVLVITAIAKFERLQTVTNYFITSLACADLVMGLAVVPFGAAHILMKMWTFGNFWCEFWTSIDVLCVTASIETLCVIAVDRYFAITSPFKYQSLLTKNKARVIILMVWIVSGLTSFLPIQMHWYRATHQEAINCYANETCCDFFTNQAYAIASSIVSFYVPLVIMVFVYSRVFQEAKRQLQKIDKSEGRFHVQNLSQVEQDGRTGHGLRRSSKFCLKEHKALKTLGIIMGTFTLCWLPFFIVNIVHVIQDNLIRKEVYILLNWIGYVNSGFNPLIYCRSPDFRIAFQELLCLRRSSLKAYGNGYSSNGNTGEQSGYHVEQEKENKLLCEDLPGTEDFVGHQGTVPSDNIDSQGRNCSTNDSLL

[3] = DRUGMATRIX: Serotonin (5-Hydroxytryptamine) 5-HT3 radioligand binding (ligand: [3H] GR-65630); format: cell membranes, Membrane; conditions: hek293; Not Active = under 50% inhibition at 10 µM
[4] = DRUGMATRIX: Sigma2 radioligand binding (ligand: [3H] Ifenprodil); format: cell membranes, Rattus norvegicus, Wistar, Brain, Membrane; conditions: Not Active = under 50% inhibition at 10 µM
[5] = molecular target: Vascular endothelial growth factor receptor 1 (Homo sapiens, UniProt P17948); format: cell-based; conditions: huvec; also: in other assays of this panel Not Active means under 50% inhibition at 10 µM
Chain of Vascular endothelial growth factor receptor 1 (P17948 whole entry): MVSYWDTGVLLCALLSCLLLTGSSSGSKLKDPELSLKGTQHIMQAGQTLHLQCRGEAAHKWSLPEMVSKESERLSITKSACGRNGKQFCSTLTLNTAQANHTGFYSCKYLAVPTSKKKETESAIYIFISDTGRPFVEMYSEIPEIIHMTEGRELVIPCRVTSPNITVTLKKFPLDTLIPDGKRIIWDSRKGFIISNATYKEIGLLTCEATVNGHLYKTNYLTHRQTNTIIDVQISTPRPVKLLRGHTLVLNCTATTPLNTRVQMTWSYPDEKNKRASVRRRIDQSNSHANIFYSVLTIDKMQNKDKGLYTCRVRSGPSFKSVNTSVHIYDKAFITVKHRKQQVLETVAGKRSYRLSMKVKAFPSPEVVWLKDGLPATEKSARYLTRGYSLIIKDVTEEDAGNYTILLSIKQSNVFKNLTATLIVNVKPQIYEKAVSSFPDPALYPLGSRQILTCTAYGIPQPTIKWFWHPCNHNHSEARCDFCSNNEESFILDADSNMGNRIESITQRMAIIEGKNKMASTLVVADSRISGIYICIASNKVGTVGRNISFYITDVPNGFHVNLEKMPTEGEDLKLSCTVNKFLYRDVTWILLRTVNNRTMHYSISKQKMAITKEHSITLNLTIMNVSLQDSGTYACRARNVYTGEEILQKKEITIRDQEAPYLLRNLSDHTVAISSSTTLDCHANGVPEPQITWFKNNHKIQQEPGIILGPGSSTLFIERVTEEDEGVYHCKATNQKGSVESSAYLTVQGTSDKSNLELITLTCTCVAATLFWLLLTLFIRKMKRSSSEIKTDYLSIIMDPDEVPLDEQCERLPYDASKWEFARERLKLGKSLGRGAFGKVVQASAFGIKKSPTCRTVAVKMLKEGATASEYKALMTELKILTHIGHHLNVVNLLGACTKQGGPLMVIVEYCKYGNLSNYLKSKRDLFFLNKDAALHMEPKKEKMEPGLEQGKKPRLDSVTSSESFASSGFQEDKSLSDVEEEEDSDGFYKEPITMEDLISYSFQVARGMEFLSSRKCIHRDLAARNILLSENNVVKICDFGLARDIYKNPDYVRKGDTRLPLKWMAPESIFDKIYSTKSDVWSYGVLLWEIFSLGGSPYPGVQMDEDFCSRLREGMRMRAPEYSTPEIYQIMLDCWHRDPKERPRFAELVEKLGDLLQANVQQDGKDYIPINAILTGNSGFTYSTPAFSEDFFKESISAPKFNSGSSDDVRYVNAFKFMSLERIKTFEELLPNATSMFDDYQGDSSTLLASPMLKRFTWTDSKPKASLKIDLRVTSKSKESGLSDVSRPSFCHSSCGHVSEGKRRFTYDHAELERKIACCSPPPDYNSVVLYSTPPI

[6] = molecular target: T2, D(4) dopamine receptor (Homo sapiens, UniProt P21917); experiment: DRUGMATRIX: Dopamine D4.2 radioligand binding (ligand: [3H] Spiperone); format: cell membranes, CHO-K1, Membrane; conditions: cho-k1; Not Active = under 50% inhibition at 10 µM
T2 sequence (P21917 whole entry): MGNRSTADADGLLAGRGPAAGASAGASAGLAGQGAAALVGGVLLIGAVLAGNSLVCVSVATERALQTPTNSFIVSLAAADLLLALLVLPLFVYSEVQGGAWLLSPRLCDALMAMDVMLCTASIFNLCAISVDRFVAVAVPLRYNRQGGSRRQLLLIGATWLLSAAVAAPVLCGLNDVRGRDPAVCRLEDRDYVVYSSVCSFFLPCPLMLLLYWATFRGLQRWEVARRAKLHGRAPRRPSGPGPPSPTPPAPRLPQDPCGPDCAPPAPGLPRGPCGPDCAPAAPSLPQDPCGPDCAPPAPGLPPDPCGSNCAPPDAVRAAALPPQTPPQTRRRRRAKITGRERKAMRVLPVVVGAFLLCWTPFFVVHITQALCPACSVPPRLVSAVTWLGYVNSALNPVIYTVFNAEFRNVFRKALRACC

[7] = molecular target: Protein kinase C alpha type (Homo sapiens, UniProt P17252); format: cell-based; conditions: sf9;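 also: inhibition of PKCalpha kinase activity measured in an enzyme assay with histone as the phosphorylation substrate; in other assays of this panel Not Active means under 50% inhibition at 10 µM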

| SMILES | IC50 [1] | IC50 [2] | IC50 [3] | Ki [3] | IC50 [4] | Ki [4] | IC50 [5] | IC50 [6] | IC50 [7] | IC50 ([1]; read-out: IC50) | Ki ([1]; read-out: Ki) |
| --- | --- | --- | --- | --- | --- | --- | --- | --- | --- | --- | --- |
| CCOc1nc2cccc(C(=O)O)c2n1Cc1ccc(-c2ccccc2-c2nnn[nH]2)cc1 | Not Active | Not Active | Not Active | Not Active | Not Active | Not Active | Not Active | Not Active | Not Active | – | – |
| O=C(O)CCCc1cccs1 | Not Active | Not Active | Not Active | Not Active | Not Active | Not Active | Not Active | Not Active | Not Active | – | – |
| COc1ccccc1N | Not Active | Not Active | Not Active | Not Active | Not Active | Not Active | Not Active | Not Active | Not Active | – | – |
| O=C(c1ccccc1F)N1CCC(Cc2ccccc2)CC1 | Not Active | Not Active | Not Active | Not Active | Not Active | Not Active | Not Active | Not Active | Not Active | – | – |
| Cc1c(O)cccc1C(=O)N[C@@H](CSc1ccccc1)[C@H](O)CN1C[C@H]2CCCC[C@H]2C[C@H]1C(=O)NC(C)(C)C | Not Active | Not Active | Not Active | Not Active | Not Active | Not Active | Not Active | Not Active | Not Active | – | – |
| CC(O)COC[C@H]1O[C@@H]2O[C@H]3[C@H](O)[C@@H](O)[C@@H](O[C@H]4[C@H](O)[C@@H](O)[C@@H](O[C@H]5[C@H](O)[C@@H](O)[C@@H](O[C@H]6[C@H](O)[C@@H](O)[C@@H](O[C@H]7[C@H](O)[C@@H](O)[C@@H](O[C@H]8[C@H](O)[C@@H](O)[C@@H](O[C@H]1[C@H](O)[C@H]2O)O[C@@H]8COCC(C)O)O[C@@H]7COCC(C)O)O[C@@H]6COCC(C)O)O[C@@H]5COCC(C)O)O[C@@H]4COCC(C)O)O[C@@H]3COCC(C)O (stereo partly drawn) [2-HYDROXYPROPYL-BETA-CYCLODEXTRIN] | Not Active | Not Active | Not Active | Not Active | Not Active | Not Active | Not Active | Not Active | Not Active | – | – |
| NC(=O)c1cccc(N)c1 [3-AMINOBENZAMIDE] | Not Active | Not Active | Not Active | Not Active | Not Active | Not Active | Not Active | Not Active | Not Active | – | – |
| C[C@H]1O[C@H](O[C@H]2[C@H](O)[C@@H](O)[C@@H](O[C@H]3[C@H](O)[C@@H](O)C(O)O[C@@H]3CO)O[C@@H]2CO)[C@H](O)[C@@H](O)[C@@H]1N[C@H]1C=C(CO)[C@@H](O)[C@H](O)[C@H]1O (some centres not stated) [ACARBOSE] | Not Active | Not Active | Not Active | Not Active | Not Active | Not Active | Not Active | Not Active | Not Active | – | – |
| CC[C@H]1[C@@H]2C[C@H]3[C@@H]4N(C)c5ccccc5[C@]45C[C@@H]([C@@H]2[C@H]5O)N3[C@@H]1O [AJMALINE] | Not Active | Not Active | Not Active | Not Active | Not Active | Not Active | Not Active | Not Active | Not Active | – | – |
| NC12CC3CC(CC(C3)C1)C2 [AMANTADINE] | Not Active | Not Active | Not Active | Not Active | Not Active | Not Active | Not Active | Not Active | Not Active | – | – |
| NCCCNCCSP(=O)(O)O [AMIFOSTINE] | Not Active | Not Active | Not Active | Not Active | Not Active | Not Active | Not Active | Not Active | Not Active | – | – |
| CN(C)CCC=C1c2ccccc2CCc2ccccc21 [AMITRIPTYLINE] | – | Not Active | Not Active | Not Active | Not Active | Not Active | Not Active | Not Active | Not Active | 14 nM | 5.6 nM |
| CC(=O)Oc1ccccc1C(=O)O [ASPIRIN] | Not Active | Not Active | Not Active | Not Active | Not Active | Not Active | Not Active | Not Active | Not Active | – | – |
| CC(C)c1c(C(=O)Nc2ccccc2)c(-c2ccccc2)c(-c2ccc(F)cc2)n1CC[C@@H](O)C[C@@H](O)CC(=O)O [ATORVASTATIN] | Not Active | Not Active | Not Active | Not Active | Not Active | Not Active | Not Active | Not Active | Not Active | – | – |
| CC(=O)OC[C@H]1O[C@@H](n2ncc(=O)[nH]c2=O)[C@H](OC(C)=O)[C@@H]1OC(C)=O [AZARIBINE] | Not Active | Not Active | Not Active | Not Active | Not Active | Not Active | Not Active | Not Active | Not Active | – | – |
| C[C@H]1[C@H](NC(=O)/C(=N\OC(C)(C)C(=O)O)c2csc(N)n2)C(=O)N1S(=O)(=O)O [AZTREONAM] | Not Active | Not Active | Not Active | Not Active | Not Active | Not Active | Not Active | Not Active | Not Active | – | – |
| O=C(O)CCNC(=O)c1ccc(/N=N/c2ccc(O)c(C(=O)O)c2)cc1 [BALSALAZIDE] | Not Active | Not Active | Not Active | Not Active | Not Active | Not Active | Not Active | Not Active | Not Active | – | – |
| COc1cc(OC)c(C(=O)CCCN2CCCC2)c(OC)c1 [BUFLOMEDIL] | Not Active | Not Active | Not Active | Not Active | Not Active | Not Active | Not Active | Not Active | Not Active | – | – |
| Cn1c(=O)c2c(ncn2C)n(C)c1=O [CAFFEINE] | Not Active | Not Active | Not Active | Not Active | Not Active | Not Active | Not Active | Not Active | Not Active | – | – |
| ClC(Cl)(Cl)Cl [CARBON TETRACHLORIDE] | Not Active | Not Active | Not Active | Not Active | Not Active | Not Active | Not Active | Not Active | Not Active | – | – |
| CO/N=C(\C(=O)N[C@@H]1C(=O)N2C(C(=O)O)=C(COC(C)=O)CS[C@H]12)c1csc(N)n1 [CEFOTAXIME] | Not Active | Not Active | Not Active | Not Active | Not Active | Not Active | Not Active | Not Active | Not Active | – | – |
| CNC1=Nc2ccc(Cl)cc2C(c2ccccc2)=[N+]([O-])C1 [CHLORDIAZEPOXIDE] | Not Active | Not Active | Not Active | Not Active | Not Active | Not Active | Not Active | Not Active | Not Active | – | – |
| Cc1cc(O)cc(C)c1Cl [CHLOROXYLENOL] | Not Active | Not Active | Not Active | Not Active | Not Active | Not Active | Not Active | Not Active | Not Active | – | – |
| CCCNC(=O)NS(=O)(=O)c1ccc(Cl)cc1 [CHLORPROPAMIDE] | Not Active | Not Active | Not Active | Not Active | Not Active | Not Active | Not Active | Not Active | Not Active | – | – |
